Measurements from publication PMC3626541, “A first in human, safety, pharmacokinetics, and clinical activity phase I study of once weekly administration of the Hsp90 inhibitor ganetespib (STA-9090) in patients with solid malignancies” (BMC Cancer, 2013).
Entries after “also recorded” stand apart in the source; their conditions may differ.

Tested on: patients with advanced solid tumors
Assay: Dose escalation: dose-limiting toxicity, MTD and RP2D
Assay type: in vivo, human
Description: Ganetespib was administered over a 1-hour infusion, once weekly for 3 weeks of a 4-week cycle. Intra-patient dose escalation was allowed to dose levels shown to be safe and tolerable. The starting dose (7 mg/m^2) was selected based on a conservative estimate using the highest non-severely toxic dose established in a once-weekly, 4-week repeat dose study in cynomolgus monkeys. […] Each cohort consisted of 3 patients, with expansion to 6 patients if 1 of the 3 initial patients experienced a DLT, which was defined as: Grade 4 thrombocytopenia (or Grade 3 with hemorrhage); Grade 4 neutropenia lasting > 7 days (or Grade 3 with fever); Grade 4 anemia; ≥ Grade 3 non-hematologic toxicity (except alopecia); and ≥ Grade 3 hypersensitivity despite premedication. Doses were escalated after all patients in the preceding dose cohort had completed Cycle 1. […] The RP2D was defined as the dose of ganetespib below which 2 of 3 or 2 of 6 patients experienced a DLT.

SMILES: CC(C)c1cc(-c2n[nH]c(=O)n2-c2ccc3c(ccn3C)c2)c(O)cc1O [Ganetespib, 5-[2,4-dihydroxy-5-(1 methyl-ethyl)phenyl]-2,4 dihydro-4-(1-methyl-1H indol-5 yl)-3H-1,2,4 triazole-3-one]
- DLT: Grade 3 elevated serum amylase (150 mg/m^2 dose level): one Grade 3 amylase elevation; also recorded: one patient
- DLT: Grade 3 and 4 asthenia (259 mg/m^2 dose level): one Grade 3 and one Grade 4 asthenia; also recorded: two patients
- DLT: Grade 3 diarrhea (259 mg/m^2 dose level, expanded to 6 patients): one Grade 3 diarrhea; also recorded: one additional patient
- Patients experiencing DLT (7–114 mg/m^2 cohort): None of the patients
- Maximum tolerated dose (MTD) (1 hour IV infusion once weekly for 3 weeks of a 4-week cycle): 216 mg/m^2
- Recommended phase II dose (RP2D) (human, in vivo, iv, 4 weeks): 200 mg/m^2
- Grade 3 fatigue (would have been dose-limiting in dose-escalation phase) (in vivo): One patient
